Data from article PMC4069242 (Clinical and experimental allergy : journal of the British …, 2014).
Where no end group is shown, it is not given here.

What follows are compounds tested against DR04:01 protein (Homo sapiens, UniProt P01903+P01911, A100K/A169T/F76Y/I96L/K127E/L162R/M171V/N62H/P40V/Q125Y/R42H/S133A/S149N/S66Y/V115G/V209L/W38E) (assay: Peptide binding assay).

With EEPIAPYHFDLSGHAFGSMA [Lol p 1 97-116] as the compound, how does the IC50 read?
The IC50 was 435 nM.

For EEPIAPYHFDLSGHAFGAMA [Phl p 1 97-116], which IC50 is on record?
The IC50 was 275 nM.

How did the IC50 turn out when ETYKFIPSLEAAV [Pha a 5a 199-218] was run?
Its IC50 is 51 nM.

Which IC50 does the source give for AAFRIAATAANAA [Holl 5a 167-186] here?
The IC50 was 116 nM.

SEFEDVIPEGWKADTSYSAK [Lol p 1 221-240] was tested. Which IC50 did it give?
Its IC50 is 2920 nM.

SEVEDVIPEGWKADTSYEAK [Dac g 1 221-240] was tested. Which IC50 did it give?
The IC50 was 177 nM.

How did the IC50 turn out when ESYKFIPTLEAAV [Dac g 5a 199-218] was run?
Its IC50 is 74.6 nM.

EAYKFIPSLETAV [Holl 5a 199-218] was tested. Which IC50 did it give?
Its IC50 is 105 nM.

With AAFRTAATAADAA [Hor v 5a 167-186] as the compound, how does the IC50 read?
Its IC50 is 970 nM.

Which IC50 does the source give for `CC[C@H](C)[C@H](NC(=O)[C@@H](NC(=O)[C@H](CC(=O)O)NC(=O)[C@H](CCC(=O)O)NC(=O)[C@H](C)NC(=O)[C@H](CCC(=O)O)NC(=O)[C@@H](N)[C@@H](C)O)C(C)C)C(=O)N1CCC[C@H]1C(=O)N[C@@H](CCC(=O)O)C(=O)NCC(=O)N[C@@H](Cc1c[nH]c2ccccc12)C(=O)N[C@@H](CCCCN)C(=O)N[C@@H](C)C(=O)N[C@@H](CC(=O)O)C(=O)N[C@H](C(=O)N[C@@H](CO)C(=O)N[C@@H](Cc1ccc(O)cc1)C(=O)N[C@@H](CCC(=O)O)C(=O)N[C@@H](CO)C(=O)N[C@@H](CCCCN)C(=O)O)[C@@H](C)O` [Phl p 1 221-240] here?
The IC50 was 2920 nM.

For AAYKIAATAANAA [Dac g 5a 167-186], which IC50 is on record?
The IC50 was 50 nM.

With ESYKFIPALEAAV [Phl p 5a 199-218] as the compound, how does the IC50 read?
Its IC50 is 970 nM.

For AAYRTAATAANAA [Lol p 5a 167-186], which IC50 is on record?
The IC50 was 532 nM.

DSYKFIPTLVAAV [Lol p 5a 199-218] was tested. Which IC50 did it give?
The IC50 was 410 nM.

Which IC50 does the source give for ESYKFIPALEAAV [Hor v 5a 199-218] here?
The IC50 was 990 nM.
